Data as given in patent US8853230B2, “Inhibitors of JAK” (Portola Pharmaceuticals, Inc., priority 2009, dated 2014).

Legend:
Type in all cases: biochemical
JAK1 = molecular target: T1, JAK1 (Homo sapiens, UniProt P23458); test: Z'-LYTE kinase assay, JAK1 tyrosine phosphorylation activity; conditions: read-out: JAK 1 IC50
T1 construct: 5 μl of catalytic domain recombinant Kinase enzyme+Tyr peptide substrate (Invitrogen, Calif.); purchased Invitrogen
Description: (§1) JAK and TYK2 tyrosine phosphorylation activity is measured using the Z′-LYTE™ Technology developed by Invitrogen Corporation (Carlsbad, Calif.). For JAK1, JAK2 and JAK3 the Z′-LYTE™ Kinase Assay Kit-Tyr6 Peptide (part number PV4122) was used. For TYK2 the Z′-LYTE™ Kinase Assay Kit-Tyr6 Peptide (part number PV3192) was used. The Z′-LYTE™ biochemical assay employs a fluorescence resonance energy transfer (FRET) coupled-enzyme format and is based on the differential sensitivity of phosphorylated and non-phosphorylated peptides to proteolitic cleavage. The assay uses a synthetic peptide substrate that is labelled with a donor fluorophore (coumarin) and an acceptor fluorophore (fluorescein) that make up a FRET pair. In the primary reaction (the Kinase Reaction), the kinase transfers the γ-phosphate of ATP to a single tyrosine residue on the substrate, while the presence of a kinase inhibitor in the primary reaction suppresses phosphorylation. In the secondary reaction (the Development Reaction), a site-specific protease (the Development Reagent) is added. The development buffer quenches the Kinase Reaction, while the protease recognizes and cleaves non-phosphorylated Z′-LYTE™ peptide substrate. Cleavage disrupts FRET between the donor and acceptor fluorophores on the non-phosphoryleted substrate, while uncleaved, phosphorylated substrate maintains FRET.
(§2) To test the ability of candidate molecules to inhibit JAK tyrosine phosphorylation activity, molecules are reconstituted in 100% DMSO and serially diluted 1:10 in polypropylene v-bottom microtiter plates. The candidate molecules are then diluted 1:25 into kinase buffer and 2.5 μl transferred into duplicate wells of a 384 well low volume black microtiter assay plate (Corning, USA). The final DMSO concentration in the assay is 1%. The kinase reaction contains 2.5 μl of a candidate molecule, 5 μl of catalytic domain recombinant Kinase enzyme+Tyr peptide substrate (Invitrogen, Calif.) and 2.5 μl ATP (Invitrogen, Calif.). The kinase reaction is allowed to procede for 1 hour at room temperature. The protease reaction is initiated by the addition of 5 μl Development Reagent (Invitrogen, Calif.). After 1 hour incubation at room temperature the fluorescence is measured using a FlexStation plate reader (Molecular Devices, Sunnyvale, Calif.). The reader settings used are as follows: Fluorescence mode, endpoint, top read, excitation 400 nm, emission 445 nm and 520 nm, Auto Cutoff 435 nm and 515 nm, PMT sensitivity high, 6 reads per well. Inhibition of JAK activity is calculated as the percent phosphorylation of substrate in the presence of inhibitor compared to the percent phosphorylation of substrate in the absence of inhibitor. IC50's were derived using Xlfit 4.3 (IDBS, UK), 4 parameter logistic model 205: Y=(A+((B−A)/(1+((C/x)^D)))).

JAK2 = molecular target: T2, JAK2 (Homo sapiens, UniProt O60674); test: Z'-LYTE kinase assay, JAK2 tyrosine phosphorylation activity
T2 construct: 5 μl of catalytic domain recombinant Kinase enzyme+Tyr peptide substrate (Invitrogen, Calif.); purchased Invitrogen
Description: as §1, §2

JAK3 = molecular target: T3, JAK3 (Homo sapiens, UniProt P52333); test: Z'-LYTE kinase assay, JAK3 tyrosine phosphorylation activity
T3 construct: 5 μl of catalytic domain recombinant Kinase enzyme+Tyr peptide substrate (Invitrogen, Calif.); purchased Invitrogen
Description: as §1, §2

TYK2 = molecular target: T4, TYK2 (Homo sapiens, UniProt P29597); test: Z'-LYTE kinase assay, TYK2 tyrosine phosphorylation activity
T4 construct: 5 μl of catalytic domain recombinant Kinase enzyme+Tyr peptide substrate (Invitrogen, Calif.); purchased Invitrogen
T4 sequence (P29597 897-1176 limits assumed): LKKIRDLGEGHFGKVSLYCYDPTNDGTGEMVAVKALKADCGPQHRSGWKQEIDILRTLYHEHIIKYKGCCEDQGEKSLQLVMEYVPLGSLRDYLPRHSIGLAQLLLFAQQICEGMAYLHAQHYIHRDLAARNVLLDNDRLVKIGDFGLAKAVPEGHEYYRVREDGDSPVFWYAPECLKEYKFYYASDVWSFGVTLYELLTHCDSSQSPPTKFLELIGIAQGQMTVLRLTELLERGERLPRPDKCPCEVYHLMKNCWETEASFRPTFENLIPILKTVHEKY
Description: as §1, §2

T3 sequence (P52333 822-1111 limits assumed): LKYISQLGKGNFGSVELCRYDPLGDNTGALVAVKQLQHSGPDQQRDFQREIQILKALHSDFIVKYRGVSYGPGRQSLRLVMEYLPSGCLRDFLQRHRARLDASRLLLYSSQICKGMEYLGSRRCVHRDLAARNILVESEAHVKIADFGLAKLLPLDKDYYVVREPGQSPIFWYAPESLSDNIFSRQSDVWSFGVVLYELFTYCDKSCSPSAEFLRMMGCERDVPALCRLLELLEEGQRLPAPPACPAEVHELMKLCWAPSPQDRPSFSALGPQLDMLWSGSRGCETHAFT
T2 sequence (O60674 849-1124 limits assumed): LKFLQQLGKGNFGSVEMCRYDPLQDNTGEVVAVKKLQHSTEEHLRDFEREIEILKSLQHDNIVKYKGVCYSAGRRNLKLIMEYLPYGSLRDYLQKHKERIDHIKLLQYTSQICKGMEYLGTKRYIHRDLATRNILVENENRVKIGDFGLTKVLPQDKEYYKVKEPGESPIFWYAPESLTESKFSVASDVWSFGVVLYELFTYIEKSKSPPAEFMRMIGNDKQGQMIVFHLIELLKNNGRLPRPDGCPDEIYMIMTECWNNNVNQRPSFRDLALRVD
T1 sequence (P23458 875-1153 limits assumed): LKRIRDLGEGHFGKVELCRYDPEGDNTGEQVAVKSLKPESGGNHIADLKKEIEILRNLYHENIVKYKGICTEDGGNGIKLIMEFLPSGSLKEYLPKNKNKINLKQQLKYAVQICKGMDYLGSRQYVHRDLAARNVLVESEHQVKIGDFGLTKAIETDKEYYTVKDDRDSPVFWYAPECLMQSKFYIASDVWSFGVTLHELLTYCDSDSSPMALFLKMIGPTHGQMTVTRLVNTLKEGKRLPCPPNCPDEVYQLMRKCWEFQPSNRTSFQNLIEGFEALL

CC(=O)Nc1cc(Nc2ncc(C(N)=O)c(NCc3ccccc3)n2)ccc1Cl [Example 2, 2-(3-acetamido-4-chlorophenylamino)-4-(benzylamino)pyrimidine-5-carboxamide]
IC50 (JAK1): 10 to 100 nM
IC50 (JAK2): 10 to 100 nM
IC50 (JAK3): 1 to 10 nM
IC50 (TYK2): 10 to 100 nM

CC(=O)Nc1cccc(Nc2ncc(C(N)=O)c(N[C@H](C)C(N)=O)n2)c1 [Example 91, (R)-2-(3-acetamidophenylamino)-4-(1-amino-1-oxopropan-2-ylamino)pyrimidine-5-carboxamide]
IC50 (JAK1): 10 to 100 nM
IC50 (JAK2): 10 to 100 nM
IC50 (JAK3): 10 to 100 nM
IC50 (TYK2): 10 to 100 nM

CC(=O)Nc1cccc(Nc2ncc(C(N)=O)c(NC3Cc4ccccc4C3)n2)c1 [Example 92, 2-(3-acetamidophenylamino)-4-(2,3-dihydro-1H-inden-2-ylamino)pyrimidine-5-carboxamide]
IC50 (JAK1): 10 to 100 nM
IC50 (JAK2): 10 to 100 nM
IC50 (JAK3): 10 to 100 nM
IC50 (TYK2): 10 to 100 nM

CC(=O)Nc1cccc(Nc2ncc(C(N)=O)c(NCc3cccc(F)c3)n2)c1 [Example 94, 2-(3-acetamidophenylamino)-4-(3-fluorobenzylamino)pyrimidine-5-carboxamide]
IC50 (JAK1): 10 to 100 nM
IC50 (JAK2): 10 to 100 nM
IC50 (JAK3): 1 to 10 nM
IC50 (TYK2): 10 to 100 nM

CC(=O)Nc1cccc(Nc2ncc(C(N)=O)c(NCc3cccc(F)c3F)n2)c1 [Example 95, 2-(3-acetamidophenylamino)-4-(2,3-difluorobenzylamino)pyrimidine-5-carboxamide]
IC50 (JAK1): 10 to 100 nM
IC50 (JAK2): 10 to 100 nM
IC50 (JAK3): 1 to 10 nM
IC50 (TYK2): 10 to 100 nM

CC(=O)Nc1cccc(Nc2ncc(C(N)=O)c(N[C@H]3CCc4ccccc43)n2)c1 [Example 96, (S)-2-(3-acetamidophenylamino)-4-(2,3-dihydro-1H-inden-1-ylamino)pyrimidine-5-carboxamide]
IC50 (JAK1): 10 to 100 nM
IC50 (JAK2): 10 to 100 nM
IC50 (JAK3): 10 to 100 nM
IC50 (TYK2): 10 to 100 nM

CC(=O)Nc1cccc(Nc2ncc(C(N)=O)c(N[C@@H]3CCc4ccccc43)n2)c1 [Example 97, (R)-2-(3-acetamidophenylamino)-4-(2,3-dihydro-1H-inden-1-ylamino)pyrimidine-5-carboxamide]
IC50 (JAK1): 10 to 100 nM
IC50 (JAK2): 10 to 100 nM
IC50 (JAK3): 1 to 10 nM
IC50 (TYK2): 1 to 10 nM

CC(=O)Nc1cccc(Nc2ncc(C(N)=O)c(N[C@@H](CO)c3ccccc3)n2)c1 [Example 98, (R)-2-(3-acetamidophenylamino)-4-(2-hydroxy-1-phenylethylamino)pyrimidine-5-carboxamide]
IC50 (JAK1): 100 to 1000 nM
IC50 (JAK2): 100 to 1000 nM
IC50 (JAK3): 10 to 100 nM
IC50 (TYK2): 100 to 1000 nM

CC(=O)Nc1cccc(Nc2ncc(C(N)=O)c(NCc3ccc4c(c3)OCO4)n2)c1 [Example 99, 2-(3-acetamidophenylamino)-4-(benzo[d][1,3]dioxol-5-ylmethylamino)pyrimidine-5-carboxamide]
IC50 (JAK1): 100 to 1000 nM
IC50 (JAK2): 10 to 100 nM
IC50 (JAK3): 10 to 100 nM
IC50 (TYK2): 10 to 100 nM

CC(=O)Nc1cccc(Nc2ncc(C(N)=O)c(NCc3cccc(Cl)c3)n2)c1 [Example 101, 2-(3-acetamidophenylamino)-4-(3-chlorobenzylamino)pyrimidine-5-carboxamide]
IC50 (JAK1): 10 to 100 nM
IC50 (JAK2): 1 to 10 nM
IC50 (JAK3): 1 to 10 nM
IC50 (TYK2): 10 to 100 nM

CC(=O)Nc1cccc(Nc2ncc(C(N)=O)c(NCc3cc(F)ccc3F)n2)c1 [Example 102, 2-(3-acetamidophenylamino)-4-(2,5-difluorobenzylamino)pyrimidine-5-carboxamide]
IC50 (JAK1): 100 to 1000 nM
IC50 (JAK2): 10 to 100 nM
IC50 (JAK3): 1 to 10 nM
IC50 (TYK2): 10 to 100 nM

CC(=O)Nc1cccc(Nc2ncc(C(N)=O)c(NCc3ccc(F)cc3)n2)c1 [Example 103, 2-(3-acetamidophenylamino)-4-(4-fluorobenzylamino)pyrimidine-5-carboxamide]
IC50 (JAK1): 100 to 1000 nM
IC50 (JAK2): 10 to 100 nM
IC50 (JAK3): 10 to 100 nM
IC50 (TYK2): 10 to 100 nM

COCC(=O)Nc1cccc(Nc2ncc(C(N)=O)c(NCc3ccc(F)cc3)n2)c1 [Example 104, 4-(4-fluorobenzylamino)-2-(3-(2-methoxyacetamido)phenylamino)pyrimidine-5-carboxamide]
IC50 (JAK1): 100 to 1000 nM
IC50 (JAK2): 10 to 100 nM
IC50 (JAK3): 10 to 100 nM
IC50 (TYK2): 10 to 100 nM

C[C@@H](Nc1nc(Nc2cccc(NC(=O)N3CCCC3)c2)ncc1C(N)=O)c1ccccc1 [Example 105, (R)-4-(1-phenylethylamino)-2-(3-(pyrrolidine-1-carboxamido)phenylamino)pyrimidine-5-carboxamide]
IC50 (JAK1): 100 to 1000 nM
IC50 (JAK2): 10 to 100 nM
IC50 (JAK3): 1 to 10 nM
IC50 (TYK2): 10 to 100 nM

NC(=O)c1cnc(Nc2ccc(Cl)c(NC(=O)NC3CCC3)c2)nc1NCc1ccccc1 [Example 107, 4-(benzylamino)-2-(4-chloro-3-(3-cyclobutylureido)phenylamino)pyrimidine-5-carboxamide]
IC50 (JAK1): > 1000 nM
IC50 (JAK2): > 1000 nM
IC50 (JAK3): 100 to 1000 nM
IC50 (TYK2): 100 to 1000 nM

COCC(=O)Nc1cc(Nc2ncc(C(N)=O)c(N[C@H](C)c3ccccc3)n2)ccc1Cl [Example 109, (R)-2-(4-chloro-3-(2-methoxyacetamido)phenylamino)-4-(1-phenylethylamino)pyrimidine-5-carboxamide]
IC50 (JAK1): 100 to 1000 nM
IC50 (JAK2): 100 to 1000 nM
IC50 (JAK3): 10 to 100 nM
IC50 (TYK2): 100 to 1000 nM

C[C@@H](Nc1nc(Nc2ccc(Cl)c(NC(=O)NC3CCC3)c2)ncc1C(N)=O)c1ccccc1 [Example 111, (R)-2-(4-chloro-3-(3-cyclobutylureido)phenylamino)-4-(1-phenylethylamino)pyrimidine-5-carboxamide]
IC50 (JAK1): > 1000 nM
IC50 (JAK2): > 1000 nM
IC50 (JAK3): 100 to 1000 nM
IC50 (TYK2): 100 to 1000 nM

CNC(=O)c1cnc(Nc2cccc(NC(C)=O)c2)nc1NCc1ccccc1 [Example 112, 2-(3-acetamidophenylamino)-4-(benzylamino)-N-methylpyrimidine-5-carboxamide]
IC50 (JAK1): > 1000 nM
IC50 (JAK2): > 1000 nM
IC50 (JAK3): > 1000 nM
IC50 (TYK2): > 1000 nM

NC(=O)c1cnc(Nc2cccc(NC(=O)N3CCC[C@@H](O)C3)c2)nc1NCc1ccccc1 [Example 212, (R)-4-(benzylamino)-2-(3-(3-hydroxypiperidine-1-carboxamido)phenylamino)pyrimidine-5-carboxamide]
IC50 (JAK2): 100 to 1000 nM
IC50 (JAK3): 100 to 1000 nM
IC50 (TYK2): 100 to 1000 nM

NC(=O)c1cnc(Nc2cccc(NC(=O)N3CCOCC3)c2)cc1NCc1cccnc1 [Example 319, N-(3-(5-carbamoyl-4-(pyridin-3-ylmethylamino)pyridin-2-ylamino)phenyl)morpholine-4-carboxamide]
IC50 (JAK1): > 1000 nM
IC50 (JAK2): 100 to 1000 nM
IC50 (JAK3): 10 to 100 nM

NC(=O)c1cnc(Nc2cccc(NC(=O)N3CCCC3)c2)cc1NCc1cccnc1 [Example 320, 4-(pyridin-3-ylmethylamino)-6-(3-(pyrrolidine-1-carboxamido)phenylamino)nicotinamide]
IC50 (JAK1): > 1000 nM
IC50 (JAK2): 100 to 1000 nM
IC50 (JAK3): 10 to 100 nM

CC(=O)Nc1cccc(Nc2cc(NCc3cccnc3)c(C(N)=O)cn2)c1 [Example 321, 6-(3-acetamidophenylamino)-4-(pyridin-3-ylmethylamino)nicotinamide]
IC50 (JAK1): 100 to 1000 nM
IC50 (JAK2): 100 to 1000 nM
IC50 (JAK3): 10 to 100 nM

CNC(=O)c1cnc(Nc2cccc(NC(C)=O)c2)cc1NCc1ccccc1 [Example 339, 6-(3-acetamidophenylamino)-4-(benzylamino)-N-methylnicotinamide]
IC50 (JAK1): > 1000 nM
IC50 (JAK2): > 1000 nM
IC50 (JAK3): > 1000 nM

NC(=O)c1cnc(Nc2cccc(NC(=O)N3CCCC3)c2)cc1NCc1cc(F)cc(F)c1 [Example 341, 4-(3,5-difluorobenzylamino)-6-(3-(pyrrolidine-1-carboxamido)phenylamino)nicotinamide]
IC50 (JAK1): > 1000 nM
IC50 (JAK2): 100 to 1000 nM
IC50 (JAK3): 1 to 10 nM
